# Laboratory results from PMC9901937, “Selective androgen receptor degrader (SARD) to overcome antiandrogen resistance in castration-resistant prostate cancer” (eLife, 2023).
# Molecular target: T1, androgen receptor (AR) (Homo sapiens, UniProt P10275)
# T1 construct: AR from LNCaP cytosol (LBD site)
# T1 sequence (P10275 1-920): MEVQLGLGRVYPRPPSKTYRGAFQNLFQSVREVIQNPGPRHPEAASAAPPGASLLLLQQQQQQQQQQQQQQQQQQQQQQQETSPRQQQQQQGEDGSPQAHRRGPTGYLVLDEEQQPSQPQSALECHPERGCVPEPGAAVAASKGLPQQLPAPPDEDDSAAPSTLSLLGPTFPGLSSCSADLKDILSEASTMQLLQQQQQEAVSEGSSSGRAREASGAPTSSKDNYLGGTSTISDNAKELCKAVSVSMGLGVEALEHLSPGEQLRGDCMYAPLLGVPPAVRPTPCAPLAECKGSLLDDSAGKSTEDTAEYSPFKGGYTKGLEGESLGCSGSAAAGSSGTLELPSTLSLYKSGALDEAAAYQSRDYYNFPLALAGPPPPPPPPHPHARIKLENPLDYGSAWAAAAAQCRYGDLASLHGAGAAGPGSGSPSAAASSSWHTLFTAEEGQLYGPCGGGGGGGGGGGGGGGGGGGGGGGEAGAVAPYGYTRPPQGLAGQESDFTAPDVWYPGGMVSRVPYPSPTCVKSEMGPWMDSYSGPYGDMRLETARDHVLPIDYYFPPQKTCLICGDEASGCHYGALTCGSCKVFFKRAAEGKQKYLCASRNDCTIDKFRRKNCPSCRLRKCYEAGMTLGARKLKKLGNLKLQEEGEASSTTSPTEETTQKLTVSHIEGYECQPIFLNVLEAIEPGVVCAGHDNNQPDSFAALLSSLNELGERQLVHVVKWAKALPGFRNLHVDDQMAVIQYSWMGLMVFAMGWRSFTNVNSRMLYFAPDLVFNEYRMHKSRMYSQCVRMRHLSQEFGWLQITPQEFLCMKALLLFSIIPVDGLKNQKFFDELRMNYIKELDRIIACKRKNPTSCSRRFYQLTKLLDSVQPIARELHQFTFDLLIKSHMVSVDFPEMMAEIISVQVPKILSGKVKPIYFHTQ
# Test: [3H]DHT competitive radioligand binding; also BLI and FP on AR LBD, and SPR (KD […]) and BLI on AR AF1 ([…] aa)
smiles,measurement,value
"Cc1noc(C)c1COc1ccc(C(=O)Nc2nc(-c3cccs3)cs2)cc1 [Z15, 4-[(3,5-Dimethyl-4-isoxazolyl)methoxy]-N-4-[(2-thienyl)-2-thiazole]-benzamide]",IC50,63.3 nM
